Assay results: US20230303491A1, “DONEPEZIL ETHER PALMITATE OR PHARMACEUTICALLY ACCEPTABLE SALT THEREOF” (CHONG KUN DANG PHARMACEUTICAL CORP., priority 2020, published 2023)

Test: Pharmacokinetic evaluation: donepezil concentration in plasma after intramuscular injection of solution phase compositions
Assay type: in vivo
Conditions: SD rats; for release pattern: compared among DEP, DEM, DEPD, DEHD and DES formulations (40 mg/kg as donepezil) or with donepezil
Procedure: The main ingredients of Table 1 above, castor oil, and benzyl benzoate were mixed according to the components and amounts of Table 2 below, and stirred at room temperature for 0.5 to 3 hours to prepare solution phase compositions.
Four male SD rats with an average weight of 300 g were intramuscularly injected with a dose of 4 mg/kg of donepezil in the formulation of donepezil (D) and 40 mg/kg of donepezil each in the DEP, DEM, DEPD, DEHD, and DES formulations, and the concentrations of donepezil in plasma samples of SD rats were analyzed using LC-MS/MS.

## CCCCCCCCCCCCCCOCC(=O)OC1=C(CC2CCN(Cc3ccccc3)CC2)Cc2cc(OC)c(OC)cc21 [DEP, 2-((1-benzylpiperidin-4-yl)methyl)-5,6-dimethoxy-1H-inden-3-yl 2-(tetradecyloxy) acetate]
D 4 mg/kg, DEP 40 mg/kg as donepezil
  release of drug immediately after administration: without rapid release of drug after administration
  release pattern: most preferred for the sustained-release composition
Listed as donepezil ether palmitate (DEP)
  release pattern: better release pattern than that of donepezil
